Data reported in patent publication US9243281B2, “Neuroprotective chemicals and methods for identifying and using same” (Board of Regents of The University of Texas System, priority 2013, dated 2016).

What was measured:
U2OS cells [1] = test: western blotting of caspase-3 activation and γ-H2AX after doxorubicin; format: cell-based
Experimental: FIGS. 9A-9B. […] (FIG. 9A) U2OS cells were treated with increasing concentrations of P7C3-A20 for 2 h prior to exposure to 0.5 μM doxorubicin for another 2 h. Cells were harvested and subjected to western blotting with the DNA damage marker, γ-H2AX. Actin was served as loading control. (FIG. 9B) U2OS cells were treated with P7C3-A20 and doxorubicin for the indicated time. Caspase-3 activation was determined by western blotting. Caspase-3 cleavage was observed when treated with doxorubicin alone at 60 h, but was prevented in the presence of P7C3-A20.
Progress on studies aimed towards resolving the mode of action of P7C3 has been hampered by the fact that we have been limited to studies of drug action in living animals. Our standard assay of neurogenesis requires, under optimal conditions, a one month turn-around from the synthesis of a new derivative to a score for its neuroprotective activity. In efforts to break this logjam, we tested whether P7C3 might have cell-protective activity to any of eight generic toxins.

[2] = test system: NAD levels in doxorubicin-treated U2OS cells; test: NAD rebound assay in doxorubicin-treated cells (NAD/NADH Glo); format: cell-based; settings: 0.5 μM doxorubicin 45 h
Experimental: FIG. 12. Five-point dose response curves (DRC) of all tested compounds in NAD rebound assay. […] Cellular NAD abundance was determined by NAD/NADH Glo assay kit.
Each chemical variant of P7C3 was co-incubated with doxorubicin on cultured U2OS cells at five doses (0.03 uM, 0.1 uM, 0.3 uM, 1 uM and 3 uM). After 45 hrs incubation, cells were assayed for intracellular levels of NAD (FIG. 12).
Assay was performed following the manufacturer's protocol. NAD/NADH-Glo reagent contains the NAD Cycling Enzyme that converts NAD+ to NADH. In the presence of NADH, the enzyme reductase reduces a proluciferin reductase substrate to form luciferin. Cells were grown in 96- or 384-well plates. 50 μl or 15 μl of NAD/NADH-Glo™ Detection Reagent were added to each well. The resulting luminescence signals were measured by Tecan plate reader or EnVison multimode plate reader (Perkin Elmer).

[3] = test system: nicotinamide salvage pathway in U2OS cells; test: nicotinamide flux analysis with 14C-labeled nicotinamide (TLC); format: cell-based; settings: 0.5 μM doxorubicin 48 h, then 6 h 14C-nicotinamide
Experimental: FIGS. 6A-6B. P7C3-A20 enhances the flux of nicotinamide through the salvage pathway. (FIG. 6A) Cells were pre-treated with 0.5 μM doxorubicin for 48 hours, followed by 6 hours treatment with ^14C-nicotinamide in the presence of the indicated amount of P7C3-A20. Metabolites were extracted and analyzed by thin layer chromatography. (FIG. 6B) Quantification of the relative intensities of NAD and NMN from the thin layer chromatogram.
NAMPT is the rate limiting enzyme in the salvage pathway whereby cells sequentially convert nicotinamide into nicotinamide […] mononucleotide (NMN) and NAD (Preiss and Handler, 1958). If active variants of P7C3 indeed bind to the NAMPT dimer in a manner fostering its activity, then these compounds should enhance the flux of nicotinamide through the salvage pathway. To test this hypothesis, ^14C-labeled nicotinamide was administered to cultured U2OS cells. Six hours later, cells were lysed in perchloric acid and cleared by centrifugation so that soluble materials could be separated by thin layer chromatography (TLC) followed by autoradiography.
Logarithmically growing cells cultured in 6-well plates were treated with doxorubicin (0.5 μM) for 48 hours. […] Afterwards, the screen was scanned using the Typhoon scanner, and the ^14C-labeled compounds were quantified using Image J.

[4] = test system: hippocampal neurogenesis (Dentate Gyrus); test: in vivo neurogenesis assay (BrdU+ cells in dentate gyrus); parameters: species or system mice; settings: living mice; vehicle (DMSO) 7.3
Procedure, shortened: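 New hippocampal cells were tracked by daily BrdU injections and anti-BrdU staining of brain sections. Adult mice (two per pool of ten compounds) got week-long intracerebroventricular infusion by mini-pump, dosed for mid-nanomolar exposure.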

U2OS cells [5] = test: doxorubicin toxicity (dox:tox) protection assay, Cell Titer Glo cell survival; format: cell-based; settings: cultured U2OS cells
From the text: FIGS. 2A-2D. […] (FIG. 2A) Chemical structure of P7C3-S326. […] (FIG. 2C) Formulas used for calculating doxorubicin toxicity (dox:tox) protection activity. Protection activity is expressed by (Sinf−S0)/AC50 in the twelve-point dose response curve (DRC) corresponding to each compound, wherein both efficacy and potency of compounds were considered. Sinf represents the expected maximal protection. S0 is the baseline. […] In the photo-crosslinking assays, the p70 band intensity was quantified by Image J, and compared the sample of P7C3-S326 alone with that of P7C3-S326 plus competitor. Pearson correlation coefficient (r) and two tailed P value were determined by GraphPad Prism 6 and Spearman Rank Correlation (v1.0.1) software.
FIG. 10. Twelve-point dose response curves (DRC) of all tested compounds in doxorubicin toxicity protection assay. […] Cell viability was determined by Cell Titer Glo assay kit.
Cell survival assay was performed in 96-well plates using CellTiter-Glo Luminescent Cell Viability Assay kit (Promega) that measures cellular ATP content. The CellTiter-Glo reagent was diluted by adding 2 volumes of PBS containing 1% Triton X-100. 50 μl of diluted reagent was directly added to 100 μl of cell culture medium per well. Plates were incubated at room temperature for 10 minutes. Luminescence was recorded by Tecan […]luor Plus reader (Tecan). Cell survival was presented as the percentage of viable cells compared with untreated control, and mean±SD was calculated from duplicates. The dox:tox assay of P7C3 analogs was carried out in the HTS Core (University of Texas Southwestern Medical Center) using the EnVison multimode plate reader (Perkin Elmer).

COc1cccc(NCC(F)Cn2c3ccc(Br)cc3c3cc(Br)ccc32)c1 (stereo not drawn) [S10]
DNA damage response (phosphorylation of H2AX) (U2OS cells [1]; 0.5 μM doxorubicin): not DNA damage response | doxorubicin-induced apoptosis (caspase-3 activation) (U2OS cells [1]; co-administration with doxorubicin): blocked doxorubicin-induced apoptosis | rebound of NAD levels (NAD/NADH-Glo kit) [2]: rebound of NAD levels | conversion of radiolabeled nicotinamide into NMN and NAD [3]: enhanced conversion of radiolabeled nicotinamide into NMN and NAD | Neurogenesis # BrdU+ Cells (X10E06)/mm3 Dentate Gyrus [4]: 19.0 (X10E06)/mm3 | protection from doxorubicin-mediated toxicity (dox:tox assay) (U2OS cells [5]): protect cultured U2OS cells from doxorubicin-mediated toxicity
